Results reported in US20100047246A1, “Methods and Compositions for Treating Vascular Disease” (The General Hospital Corporation, priority 2006, published 2010).

What was measured:
[1] = test system: scl expression in the ICM; assay: scl RNA in situ hybridization in injected embryos; format: in vivo, zebrafish; details: d522 0.3 mM, 0.4 mM, 0.5 mM, 20 hpf, RNA in situ analysis
Description: FIG. 3. Antisense lycat morpholinos mimic the cloche mutant phenotype and lycat mRNA rescues morpholino mediated knockdown.
(§1) Four morpholinos were synthesized: three anti-sense morpholinos targeting the zebrafish lycat ATG site (atg): […] (SEQ ID NO:5); the second splicing donor site (d322): […] (SEQ ID NO:6); the third splicing donor site (d522): […] (SEQ ID NO:7); and a control morpholino (a345): […] (SEQ ID NO:8) (Gene Tools, LLC). Zebrafish lycat and mouse lycat were cloned into the pCS2 vector, and capped mRNA was synthesized using mRNA in vitro transcription kits (Ambion Inc., Austin, Tex.). Morpholinos and mRNA were injected into one- or two-cell stage wild-type, clo^fv087b; Tg(flk1:GFP) or clo^fv087b; Tg(gata1:GFP) embryos. Injected embryos were incubated at 28.5° C. for examination of phenotypes or were fixed for in situ hybridization. The bright-field pictures were taken using a Zeiss M12 dissecting microscope, and the fluorescence pictures were taken with a Zeiss Stemi SVII Apo fluorescence microscope.
In situ hybridization and antibody staining were done in the presence of blocking solution (Roche, Basil, Switzerland), in the RNA hybridization solution, and antibody staining solution (Schulte-Merker, Looking at embryos, 2002). […]

Tg(flk1:GFP) embryos = assay: lycat morpholino and mRNA injections, cloche phenotype and GFP scoring in transgenic embryos; format: in vivo, zebrafish; details: for flk1:GFP signals in vessels: 24 hpf; for flk1:GFP signals in vessels / gata1:GFP signal in the blood islands: a345 control, lycat RNA 300 ng/ul; for flk1:GFP signals in vessels / gata1:GFP signal in the blood islands / Wild-type (phenotype), number of embryos / clo (phenotype), number of embryos: d522 0.3 mM; for gata1:GFP signal in the blood islands: gata1:GFP embryos; for Wild-type (phenotype), number of embryos / clo (phenotype), number of embryos: injected into 1- to 2-cell stage Tg(flk1:GFP) embryos, scored at 36 hpf and 48 hpf, a345 0.5 mM, Lycat RNA 0.3 μg/μl
Description: The cloche alleles, clo^m39 and clo^m378 have been previously described (Stainier et al., Development 121:3141, 1995; Stainier et al., Development 123:285, 1996). A new ENU-induced allele, clo^fv087b was also used. Genetic mapping of cloche was carried out using hybrid F1 (Clo^m39×TL, clo^m378×TL, clo^fv087b×WIK). Transgenic lines Tg(flk1:GFP) and Tg(gata1:GFP) (Long et al., Proc. Natl. Acad. Sci. U.S.A. 94:6267, 1997; Cross et al., ArterioScler. Thromb. Vasc. Biol. 23:911, 2003), were crossed with heterozygous clo^fv087b fish to generate transgenic clo^fv087b individuals. Examining cloche phenotypes and the GFP expression of embryos from sibling crossings identified heterozygous clo^fv087b/+ fish with the Tg(flk1:GFP) or Tg(gata1:GFP).
as §1

Substance: d522: anti-sense morpholino targeting zebrafish lycat third splicing donor site: CTGAACACACACACTGACCGAAGC (SEQ ID NO:7) (all phosphorodiamidate morpholino (PMO))
- scl expression in the ICM [1]: decreased scl
- scl expression in the ICM ([1]; listed as lycat morpholino): reduces expression of Scl in the intermediate cell mass (ICM) in a dose-dependent manner
- injected embryos showing a clear cloche phenotype (lack blood cells, vascular endothelium, endocardium) (Tg(flk1:GFP) embryos; 0.3 mM d522, 5 nl, Tg(flk1:GFP) embryos, 36 hpf and 48 hpf, 132 out of 150): 88%
- flk1:GFP signals in vessels (Tg(flk1:GFP) embryos): very little flk1:GFP signals
- gata1:GFP signal in the blood islands (Tg(flk1:GFP) embryos): very little gata1:GFP signal
- Wild-type (phenotype), number of embryos (Tg(flk1:GFP) embryos): 18
- clo (phenotype), number of embryos (Tg(flk1:GFP) embryos): 132

Substance: a345: control morpholino: GCAGCGGGCACTGCTGGTGGAAGT (SEQ ID NO:8) (all phosphorodiamidate morpholino (PMO)) [reference compound]
- flk1:GFP signals in vessels (Tg(flk1:GFP) embryos): strong flk1:GFP signals
- gata1:GFP signal in the blood islands (Tg(flk1:GFP) embryos): strong gata1:GFP signal
- Wild-type (phenotype), number of embryos (Tg(flk1:GFP) embryos): 65
- clo (phenotype), number of embryos (Tg(flk1:GFP) embryos): 0
